Where two headings read alike, the source gives them in different places.
Assays:
FLhPIF1 = target: T1, FLhPIF1 (Homo sapiens, UniProt Q9H611); assay: helicase assay after pre-incubation of SMI with FLhPIF1; assay type: biochemical; details: for IC50: read-out: IC50 for dsDNA unwinding by FLhPIF1 following pre-incubation; for increase in inhibition of FLhPIF1 DNA unwinding after pre-incubation: 3 h pre-incubation, 100 nM FLhPIF1, 100 μM SMI
T1 construct: Full length human PIF1 (FLhPIF1) was expressed and purified as a His-SUMO fusion; His-SUMO (cleaved yes); made in house; 'following similar protocols' to hPIF1HD (ArcticExpress BL21(DE3) E. coli)
T1 sequence (Q9H611 1-641): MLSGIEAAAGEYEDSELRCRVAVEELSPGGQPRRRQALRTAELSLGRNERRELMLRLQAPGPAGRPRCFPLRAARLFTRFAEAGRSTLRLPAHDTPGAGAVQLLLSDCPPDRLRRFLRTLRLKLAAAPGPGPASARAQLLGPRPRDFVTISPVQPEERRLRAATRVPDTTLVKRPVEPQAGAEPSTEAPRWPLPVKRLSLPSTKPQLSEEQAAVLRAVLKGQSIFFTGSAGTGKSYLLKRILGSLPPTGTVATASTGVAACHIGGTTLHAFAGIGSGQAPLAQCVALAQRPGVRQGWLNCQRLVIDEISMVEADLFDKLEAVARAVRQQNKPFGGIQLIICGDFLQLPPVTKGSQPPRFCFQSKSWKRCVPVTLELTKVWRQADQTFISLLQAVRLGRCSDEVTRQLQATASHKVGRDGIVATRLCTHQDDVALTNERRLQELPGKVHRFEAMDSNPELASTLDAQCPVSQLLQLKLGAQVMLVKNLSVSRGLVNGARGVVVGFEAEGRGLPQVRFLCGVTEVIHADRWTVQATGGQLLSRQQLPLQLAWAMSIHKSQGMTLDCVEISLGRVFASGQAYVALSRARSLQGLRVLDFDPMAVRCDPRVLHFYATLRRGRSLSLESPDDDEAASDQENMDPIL
Method: Helicase activity was assayed using a radiometric strand displacement assay employing a partially single- and double-stranded substrate generated by annealing two oligonucleotides: 5′-(T)55-[…] and 5′-[…], as described previously ([19],[28]). The reaction buffer was 20 mM HEPES–NaOH pH 7.5, 20 mM NaCl, 5.5 mM MgCl2, 5 mM ATP, 1 mM DTT and 0.1 mg/ml BSA. SMIs (100 mM stocks in DMSO) were assayed at up to 2 mM without pre-incubation with FLhPIF1, unless otherwise stated. Reactions (0.1 nM substrate) were incubated at 37°C for 20 min, followed by addition of 0.2 volumes of 120 mM EDTA, 0.6% (w/v) SDS, 60% (v/v) glycerol and 0.1% (w/v) bromophenol blue before resolution of products by polyacrylamide gel electrophoresis (8%, 19:1 acrylamide:bis-acrylamide), 1× TBE (90 mM Tris–borate/2 mM EDTA, pH 8.3 with 0.05% (w/v) SDS buffer). Dried gels were exposed to phosphorimaging plates (Fujifilm) for imaging and quantification (Fuji FLA3000, image gauge V3.3 software). IC50 values were analysed by non-linear regression (variable slope) using GraphPad Prism.
First, we screened inhibitory activity of the SMIs listed in Table 1, following incubation of 100 nM FLhPIF1 with 100 μM SMI for 1 h at 22°C in the absence of substrates (ATP and DNA), before a 1:10 dilution into helicase reactions. […] Next, compounds 2, 5, 6 and 11, along with 4 and 1D were selected for analysis in a pre-incubation time-course (100 nM FLhPIF1, 100 μM SMI), up to 3 h before assaying helicase activity.
(§1) In parallel, IC50 values for inhibition of human UPF1 (hUPF1) helicase activity by the SMIs were also determined under the same conditions. UPF1-like SF1B helicases are the most closely related family of helicases to PIF1, with significant structural and mechanistic similarity ([52]).
(§2) Figure 6. SMI IC50 for dsDNA unwinding determined following pre-incubation. SMIs (0.0078–2 mM SMI) were incubated for 2 h at 22°C (100 nM FLhPIF1 or hUPF1) before dilution (1:10) in the standard helicase assay (0.1 nM DNA substrate). For 1D and 6, structures, electrophoresis of FLhPIF1 reaction product and graphs for IC50 value determination are shown. The graphed data include the activity of SMIs towards hUPF1 and IC50 values obtained are given. See Supplementary Figure S14 for the complete data set. TEXT PRINTED IN THE PICTURE: 1D: IC50 (μM): PIF1: 978 ± 221; IC50 (μM): UPF1: N.D. | 6: IC50 (μM): PIF1: 79.4 ± 16; IC50 (μM): UPF1: 1750 ± 426

[1] = target: T2, human UPF1 (hUPF1) helicase (Homo sapiens, UniProt Q92900); assay: helicase assay after pre-incubation of SMI with hUPF1; assay type: biochemical; details: 2 h pre-incubation
T2 construct: Full-length human UPF1 helicase was expressed and purified as described previously; made in house
T2 sequence (Q92900 1-1129): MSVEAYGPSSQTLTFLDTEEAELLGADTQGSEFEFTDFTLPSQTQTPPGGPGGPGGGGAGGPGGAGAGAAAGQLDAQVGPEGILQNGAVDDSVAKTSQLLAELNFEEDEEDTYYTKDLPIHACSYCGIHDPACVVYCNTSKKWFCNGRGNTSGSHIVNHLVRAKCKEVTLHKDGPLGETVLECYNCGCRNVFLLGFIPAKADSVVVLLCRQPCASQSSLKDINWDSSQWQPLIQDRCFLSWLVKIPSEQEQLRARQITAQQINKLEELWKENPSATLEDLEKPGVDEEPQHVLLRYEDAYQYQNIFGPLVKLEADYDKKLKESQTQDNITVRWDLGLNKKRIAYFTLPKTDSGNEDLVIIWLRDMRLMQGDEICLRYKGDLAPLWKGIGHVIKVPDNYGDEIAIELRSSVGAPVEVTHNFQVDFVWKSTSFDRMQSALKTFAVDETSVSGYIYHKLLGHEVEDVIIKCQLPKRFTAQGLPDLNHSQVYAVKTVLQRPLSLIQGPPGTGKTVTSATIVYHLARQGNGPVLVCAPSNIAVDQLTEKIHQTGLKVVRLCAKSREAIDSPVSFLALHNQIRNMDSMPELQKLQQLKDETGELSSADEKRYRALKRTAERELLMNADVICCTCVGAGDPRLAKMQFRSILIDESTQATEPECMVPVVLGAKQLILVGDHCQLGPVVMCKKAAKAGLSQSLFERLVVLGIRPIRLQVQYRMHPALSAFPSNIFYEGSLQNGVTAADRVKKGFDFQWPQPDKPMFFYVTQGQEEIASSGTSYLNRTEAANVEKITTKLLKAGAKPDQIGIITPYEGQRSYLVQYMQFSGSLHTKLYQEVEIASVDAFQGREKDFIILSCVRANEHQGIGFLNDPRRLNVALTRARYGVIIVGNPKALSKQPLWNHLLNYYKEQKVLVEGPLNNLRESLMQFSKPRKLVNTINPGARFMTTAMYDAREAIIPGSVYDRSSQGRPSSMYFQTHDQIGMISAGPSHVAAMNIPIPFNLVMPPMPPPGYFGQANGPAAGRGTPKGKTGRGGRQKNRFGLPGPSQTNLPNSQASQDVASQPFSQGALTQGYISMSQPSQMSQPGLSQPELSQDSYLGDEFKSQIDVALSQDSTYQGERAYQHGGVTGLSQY
Method: Full-length human UPF1 helicase was expressed and purified as described previously ([36]).
as §1, §2
Supplementary Figure 14. IC50 DNA unwinding determined following 2 hours pre-incubation. […] The assay procedure and reaction conditions for each helicase were identical (see methods, main manuscript). The figure complements main manuscript Figure 6. […] The reason for this is unclear.

[2] = target: T3, FLhPIF1 (full length human PIF1) (Homo sapiens, UniProt Q9H611); assay: radiometric strand displacement helicase assay, no pre-incubation; assay type: biochemical
T3 construct: Full length human PIF1 (FLhPIF1) was expressed and purified as a His-SUMO fusion; His-SUMO (cleaved yes); made in house; 'following similar protocols' to hPIF1HD (ArcticExpress BL21(DE3) E. coli)
T3 sequence (Q9H611 1-641): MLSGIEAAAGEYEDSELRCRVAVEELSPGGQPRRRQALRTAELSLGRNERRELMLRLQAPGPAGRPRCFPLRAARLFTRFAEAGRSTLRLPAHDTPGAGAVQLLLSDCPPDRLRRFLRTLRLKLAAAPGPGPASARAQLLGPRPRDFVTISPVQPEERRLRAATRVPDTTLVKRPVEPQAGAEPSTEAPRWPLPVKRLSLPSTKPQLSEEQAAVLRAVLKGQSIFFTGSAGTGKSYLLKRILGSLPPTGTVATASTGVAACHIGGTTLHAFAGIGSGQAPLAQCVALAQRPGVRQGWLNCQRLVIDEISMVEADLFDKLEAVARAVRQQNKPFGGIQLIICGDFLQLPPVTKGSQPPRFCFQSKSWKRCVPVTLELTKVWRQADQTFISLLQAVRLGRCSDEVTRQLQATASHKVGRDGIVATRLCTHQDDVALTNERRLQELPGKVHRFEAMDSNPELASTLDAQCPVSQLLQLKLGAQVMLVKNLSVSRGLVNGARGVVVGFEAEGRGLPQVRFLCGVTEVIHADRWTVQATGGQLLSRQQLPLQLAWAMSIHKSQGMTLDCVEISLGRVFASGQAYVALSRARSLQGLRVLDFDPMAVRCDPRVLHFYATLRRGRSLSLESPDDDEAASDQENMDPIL
Method: Helicase activity was assayed using a radiometric strand displacement assay employing a partially single- and double-stranded substrate generated by annealing two oligonucleotides: 5′-(T)55-[…] and 5′-[…], as described previously ([19],[28]). […] SMIs (100 mM stocks in DMSO) were assayed at up to 2 mM without pre-incubation with FLhPIF1, unless otherwise stated. […] Dried gels were exposed to phosphorimaging plates (Fujifilm) for imaging and quantification (Fuji FLA3000, image gauge V3.3 software). IC50 values were analysed by non-linear regression (variable slope) using GraphPad Prism.

hPIF1HD wild type = target: T4, hPIF1HD wild type (Homo sapiens, UniProt Q9H611 206-620); assay: EMSA; 5 mM AMP-PNP, 5.5 mM MgCl2; 2 nM protein, 0.25 nM DNA; no inhibitor; 20 mM HEPES-NaOH pH 7.5, 20 mM NaCl, 5.5 mM MgCl2, 5 mM AMP-PNP, 1 mM DTT, 0.1 mg/ml BSA; 0.25 nM DNA; binding temperature not stated explicitly (helicase assay conditions 37 C); 5% PAGE, 0.25x TBE; details: protein: recombinant; tags: N-terminal His6 removed; GSRM cloning residues remain; label: 5'-32P; single strand
T4 sequence: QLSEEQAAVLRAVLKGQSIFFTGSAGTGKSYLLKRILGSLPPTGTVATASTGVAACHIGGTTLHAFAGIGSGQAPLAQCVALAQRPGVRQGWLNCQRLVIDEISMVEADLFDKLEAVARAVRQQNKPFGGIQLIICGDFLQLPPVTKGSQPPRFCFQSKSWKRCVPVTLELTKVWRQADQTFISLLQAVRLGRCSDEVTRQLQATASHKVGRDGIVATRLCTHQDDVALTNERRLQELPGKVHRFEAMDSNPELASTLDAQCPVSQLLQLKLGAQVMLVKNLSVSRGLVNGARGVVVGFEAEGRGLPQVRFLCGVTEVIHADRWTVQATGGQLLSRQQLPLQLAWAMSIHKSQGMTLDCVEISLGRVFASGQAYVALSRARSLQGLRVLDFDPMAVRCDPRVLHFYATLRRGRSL

[3] = 2 h pre-incubation at 22°C with 100 nM FLhPIF1, then 1:10 dilution into helicase assay

Row | Molecule | IC50 (FLhPIF1; [3]) [µM] | IC50 (FLhPIF1; 2 h pre-incubation at 22°C) [µM] | increase in inhibition of FLhPIF1 DNA unwinding after pre-incubation (FLhPIF1) | inhibition of hUPF1 helicase [1] | inhibition at 1000 µM ([2]; 1 mM single point, gel-based DNA unwinding assay, four repeats (S4 n=3)) [%] | IC50 ([2]; 0.0078–2 mM compound, 10 nM FLhPIF1, 0.1 nM DNA substrate, no pre-incubation, n = 3, read-out: IC50 for inhibition of FLhPIF1 helicase activity) [µM] | binding result (hPIF1HD wild type)
1 | CC(=O)Nc1ccc(-c2csc(N)n2)cc1 [Compound 1D] | 978 ± 221 | ~1000 | 5–10% | minimal inhibition | – | – | –
2 | COC(=O)c1ccc(-c2csc(N)n2)cc1 [Compound 4] | 300 ± 66 | – | 5–10% | – | 72.4 ± 4.5 | 78 ± 4 | –
3 | oligo d(T)55 (ssDNA) DNA: TTTTTTTTTTTTTTTTTTTTTTTTTTTTTTTTTTTTTTTTTTTTTTTTTTTTTTT | – | – | – | – | – | – | binds

Reference: publication PMC11551755, “Structure-based discovery of first inhibitors targeting the helicase activity of human PIF1” (Nucleic Acids Research, 2024)
